Test results from patent US9782399B2, “Pharmaceutical compositions which inhibit FKBP52-mediated regulation of androgen receptor function and methods of using same” (The United States of America, as represented by the …, priority 2009, dated 2017).

Tested on: FKBP52-enhanced AR function
Experiment: AR-mediated luciferase reporter assay in 52KO MEF cells
Format: cell-based, murine
Details: compound 1 hour, then DHT 16 hours
Method: FIG. 5B is a bar graph showing data from an experiment where 52KO MEF cells were treated at 50% confluency with a range of concentrations of Compound 2, and cell numbers were counted by trypan blue exclusion after 24 hours. FIG. 5C depicts Western blots on the same cell lysates from FIG. 5B, with compound 2 concentrations starting at 0, and increasing from about 0.1, 1, 10, to 100 μM.
To further characterize the compounds of interest selected from the yeast library assay, the inventors created a mammalian model system, comprising a receptor-mediated luciferase reporter assay, using in a murine embryonic fibroblast cell line (MEF) which has the gene for FKBP52 knocked out (52KO MEFs). […] To control for specificity and general toxicity, the inventors assessed the effects of the inhibitors on receptor function in the absence of FKBP52. […] The half maximal lethal dose (LD50) was also determined for all cell types used in these studies. The LD50 was determined by performing dose response curves in which the measure of toxicity will be cell death (via trypan blue exclusion). […]
β-galactosidase activity was measured by addition of 100 μl Tropix Gal-Screen assay reagent (Applied Biosystems, Foster City, Calif.) to about 6 μl lysate in an opaque 96-well plate. […]

Cc1ccc(NC(=O)c2ccccc2C(=O)O)cc1C [Compound 1]
inhibition of FKBP52-enhanced AR function in mammalian cells: consistent from yeast to mammalian cells
